In patent US6657052B1, “Biomolecular labeling” (University of Arkansas, priority 1997, dated 2003):

What was measured:
[1] = cited from earlier work; for pKa: H2O, 25° C., Lange's Handbook of Chemistry
[2] = Hydrolysis of kinetically formed trialkylphosphate in the presence of water (1H NMR); assay type: physicochemical
Excerpt: (§1) 3.3 Kinetic favorability of phosphotriester formation over hydrolysis in the presence of water. The reaction of quinone methide 7 and two equivalents of dibenzylphosphoric acid in the presence of excess water (˜200 equivalents for a homogeneous solution) afforded only trialkylphosphate 8 as the product in the equilibrium by 1H NMR analysis. […] Trialkylphosphate 8 is the kinetic product. A similar amount of 8 is produced in the presence of a much higher concentration of water (3,000 equivalents forming a bilayer) at ambient temperature after 30 minutes. […] Hydrolysis to benzyl alcohol appears to be the thermodynamic product^39. Similar results of quinone methides reacting with amino acid derivatives under aqueous conditions have been reported by other researchers^43.
as §1, with “(3)” for “3.3”, “^1H” for “1H”, “product. […]” for “product^39. Similar results of quinone methides reacting with amino acid derivatives under aqueous conditions have been reported by other researchers^43.”

Row | Compound | pKa [1] | reported pKa values for various substituted guanidines [1] | also measured
1 | Nc1cccc(O)c1 [3-aminophenol] | 9.83 |  | 
2 | CCN(C)CC [Et2MeN] | 10.4 |  | 
3 | N=C(N)N [guanidine] | 14.38 |  | 
4 | CNC(=N)N [methylguanidine] | 14.1 | 14.1 | 
5 | N=C(N)Nc1ccccc1 [phenylguanidine] |  | 10.8 | 
6 | Cc1cc(COP(=O)(OCc2ccccc2)OCc2ccccc2)cc(C)c1O [trialkylphosphate 8] |  |  | hydrolysis to benzyl alcohol ([2]; 3,000 equivalents water forming a bilayer, ambient temperature, after 18 hours): complete conversion to benzyl alcohol; hydrolysis to benzyl alcohol ([2]; excess water (~200 equivalents, homogeneous solution), 18 hours at ambient temperature): Minor amounts of the benzyl alcohol hydrolysis product
